From article PMC6207338 (Nature medicine, 2018)
Positions count from the first letter of the chain named. Like-named read-outs stand apart in the source and are kept apart here.

Legend:
glucose production = details: i.v. infusion; cited from earlier work
[1] = system: FBP1^WT/WT (WT) and FBP1^G27P/G27P (KI) mice; test: AICAR tolerance in mice; type: in vivo, mouse; details: 250 mg.kg^-1 i.p.
AMPK = AMPK activation in tissue by Western blotting / kinase assay; type: in vivo, mouse
[2] = system: gastrocnemius (GAS) muscle; test: Skeletal muscle adenine/Z nucleotides after AICAR; type: in vivo, mouse; details: following AICAR treatment
mouse FBP1 Y114F = biological target: T1, mouse FBP1 Y114F (Mus musculus, UniProt Q9QXD6, Y114F); test: FBPase coupled assay, mouse FBP1 Y114F; type: biochemical; details: untagged Y114F, data not shown
T1 sequence (Q9QXD6 1-338 Y114F): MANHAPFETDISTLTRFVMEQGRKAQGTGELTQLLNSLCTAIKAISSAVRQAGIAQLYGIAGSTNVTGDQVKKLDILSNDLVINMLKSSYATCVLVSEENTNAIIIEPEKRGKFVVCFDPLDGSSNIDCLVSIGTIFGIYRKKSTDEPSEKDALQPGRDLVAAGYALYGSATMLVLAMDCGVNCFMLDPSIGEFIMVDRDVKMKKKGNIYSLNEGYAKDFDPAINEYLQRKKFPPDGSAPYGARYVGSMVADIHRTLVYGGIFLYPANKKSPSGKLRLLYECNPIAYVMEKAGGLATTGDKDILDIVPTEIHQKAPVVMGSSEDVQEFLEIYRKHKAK

mouse FBP1 (WT) = biological target: T2, mouse FBP1 (WT) (Mus musculus, UniProt Q9QXD6); test: FBPase coupled assay, recombinant mouse FBP1 WT; type: biochemical
T2 sequence (Q9QXD6 1-338): T1 sequence (Q9QXD6 1-338 Y114F) with F114Y

[11C]-metformin microPET = type: in vivo, mouse; details: acute intravenous [11C]-metformin, WT vs KI mice
[3] = rats, cited from earlier work
rabbit muscle AMPD1 = test: AMPD1 assay; type: biochemical; details: rabbit muscle AMPD1, up to 10 mM
[4] = random blood samples from diabetic subjects; cited from earlier work
HFD-fed WT and KI mice = test: Metformin in high-fat diet; details: 250 mg.kg^-1 p.o., 2 h
[5] = Metformin assay in plasma and tissues
isolated hepatocytes = details: lactate and pyruvate as sole carbon sources, 1 mM; cited from earlier work
[6] = system: FBP1^WT/WT (WT) and FBP1^G27P/G27P (KI) mice; test: Metformin-euglycemic clamp; type: in vivo, mouse
in vivo = details: mouse, plasma, po, 250 mg.kg^-1
mouse liver = test: Liver adenine/Z nucleotides and metabolites after drug treatment; type: in vivo; details: 250 mg.kg^-1 p.o.
[7] = end of clamp, 1.875 mg.kg^-1.min^-1 i.v.

N#Cc1c(O)c2c(-c3ccc(-c4ccccc4O)cc3)csc2[nH]c1=O [A769662]
effect on glucose production (glucose production): no effect on glucose production

NC(=O)c1ncn([C@@H]2O[C@H](CO)[C@@H](O)[C@H]2O)c1N [AICAR, 5-aminoimidazole-4-carboxamide-1-β-D-ribofuranoside]
blood lactate levels ([1]; KI mice, t = 60 min): only modestly | plasma insulin levels ([1]; WT and KI mice, t = 60 min): no significant change | decrease in blood glucose levels ([1]; WT mice, fasted 16 h): ~ 60% | blood lactate levels ([1]; WT mice, t = 60 min): marked increase | plasma glucagon levels ([1]; WT mice, t = 60 min): increased | phosphorylation of liver AMPK and ACC (AMPK; liver, WT and KI mice, AICAR 250 mg.kg^-1 i.p., 60 min): robustly stimulated | AMPKα T172 phosphorylation and activity in skeletal muscle (AMPK; skeletal muscle, both genotypes, AICAR 250 mg.kg^-1 i.p., 60 min): failed to increase | ZMP concentration in skeletal muscle, fold less compared to liver [2]: > 50 fold | [ZMP]:[ATP] ratio in skeletal muscle, fold less compared to liver [2]: > 150 fold

O=P(O)(O)OC[C@H]1O[C@@](CO)(OP(=O)(O)O)[C@@H](O)[C@@H]1O [F-2,6-P2, fructose-2,6-bisphosphate]
IC50 for F-2,6-P2 (mouse FBP1 Y114F): increased IC50

CC(C)Cc1sc(N)nc1-c1ccc(P(=O)(O)O)o1 [MB05032, 2-amino-5-isobutyl-4-[5-phosphono-2-furanyl]thiazole]
fold less sensitive, mouse FBP1 compared to rat FBP1 (mouse FBP1 (WT); recombinant, in vitro): ~ 2 fold

CN([11CH3])C(=N)N=C(N)N [[^11C]-metformin]
kinetics and total metformin uptake in liver (PET) ([11C]-metformin microPET): comparable between WT and KI mice

CN(C)C(=N)N=C(N)N [metformin, N,N-dimethylbiguanide]
plasma metformin concentration ([3]; 50 mg.kg^-1 intravenously, 30 min after administration): ~ 74 μM | plasma metformin concentration ([3]; 100 mg.kg^-1): 345 µM | plasma metformin concentration ([3]; 250 mg.kg^-1): 1300 µM | inhibition of AMP deaminase 1 (AMPD1) (rabbit muscle AMPD1): Neither does it appear to inhibit | plasma metformin levels, upper end of range [4]: 868 µM | decrease of blood glucose (HFD-fed WT and KI mice; HFD-fed KI mice): ~ 10% | reduction of blood glucose levels (HFD-fed WT and KI mice; HFD-fed WT mice): 30-40% | direct inhibitory effect on FBP1 (mouse FBP1 (WT); purified mouse FBP1, up to 10 mM): does not have a direct inhibitory effect on FBP1 up to 10 mM | phosphorylation of liver AMPK and ACC (AMPK; mouse, in vivo, po): robust increase | liver metformin level ([5]; 250 mg.kg^-1 p.o., 1 h, comparable between genotypes): ~ 0.7 μmol.g^-1 | liver metformin [5, 7]: ~ 0.8 μmol.g^-1 | plasma metformin [5, 7]: ~ 170 μM | reduction in intracellular ATP concentration (isolated hepatocytes): ~ 85% | glucose infusion rate (GIR) ([6]; 1.875 mg.kg^-1.min^-1 i.v., WT (and also KI) mice): failed to increase GIR significantly from baseline | suppression of EndoRa, gluconeogenesis and glycogenolysis ([6]; 3.75 mg.kg^-1.min^-1 i.v., KI mice): ablated | glucose infusion rate (GIR) ([6]; 3.75 mg.kg^-1.min^-1 i.v., KI mice, 120 min clamp): only a modest increase in GIR | suppression of endogenous glucose production (EndoRa) ([6]; 3.75 mg.kg^-1.min^-1 i.v., WT mice): ~ 20% | glucose infusion rate (GIR) ([6]; 3.75 mg.kg^-1.min^-1 i.v., WT mice, 120 min clamp): substantial increase in GIR | increase in glucose disposal rate (Rd) ([6]; 3.75 mg.kg^-1.min^-1 i.v., both WT and KI): 40-50% | concentration at 1 h (in vivo): 125 to 150 µM | decrease in hepatic energy charge (mouse liver; both genotypes): ~ 10% | increase in hepatic [AMP]:[ATP] (mouse liver; both genotypes): ~ 2 fold | hepatic cAMP (mouse liver; HFD-fed mice, 2 h): no significant effect
